Test results from publication PMC9822135, “Chemical Constituents from the Leaves of Ligustrum robustum and Their Bioactivities” (Molecules, 2023).
Where two headings read alike, the source gives them in different places.

Assays:
[1] = test system: α-amylase; assay: α-amylase inhibitory activity assay (starch, DNS reagent); type: biochemical; conditions: mean ± SD (n = 3)
Method: S1.3. Determination of α-amylase inhibitory activity
Phosphate buffer (20 mM, pH 6.9, containing 6 mM NaCl) was used as the […]
µL, 1%, w/v) were mixed and incubated in a 96-well microplate at 37 °C for 10 min.
Then, α-amylase solution (50 µL, 0.2 U/mL) was added and the compound was incubated at 37 °C for an additional 10 min. The reaction was stopped by addition of […]
microplate was immediately heated in 95 °C water bath for 10 min. When the reaction solution cooled to room temperature, allsamples were diluted by adding distilled water (50 µL), and then their absorbance was measured using a microplate reader at […]
starch solution) at 540 nm, thus the inhibitory activity was calculated as (Acontrol-Asample)/Acontrol×100%, in which Asample was the absorbance of the sample and Acontrol was the absorbance of the phosphate buffer control without test samples. Acarbose was used as the positive control.

[2] = ABTS radical scavenging assay; conditions: mean ± SD (n = 3)
[3] = target: fatty acid synthase (FAS) (Gallus gallus, UniProt P12276); assay: FAS inhibitory activity assay (NADPH absorbance at 340 nm)
Sequence of fatty acid synthase (FAS) (P12276 2-2512 limits assumed): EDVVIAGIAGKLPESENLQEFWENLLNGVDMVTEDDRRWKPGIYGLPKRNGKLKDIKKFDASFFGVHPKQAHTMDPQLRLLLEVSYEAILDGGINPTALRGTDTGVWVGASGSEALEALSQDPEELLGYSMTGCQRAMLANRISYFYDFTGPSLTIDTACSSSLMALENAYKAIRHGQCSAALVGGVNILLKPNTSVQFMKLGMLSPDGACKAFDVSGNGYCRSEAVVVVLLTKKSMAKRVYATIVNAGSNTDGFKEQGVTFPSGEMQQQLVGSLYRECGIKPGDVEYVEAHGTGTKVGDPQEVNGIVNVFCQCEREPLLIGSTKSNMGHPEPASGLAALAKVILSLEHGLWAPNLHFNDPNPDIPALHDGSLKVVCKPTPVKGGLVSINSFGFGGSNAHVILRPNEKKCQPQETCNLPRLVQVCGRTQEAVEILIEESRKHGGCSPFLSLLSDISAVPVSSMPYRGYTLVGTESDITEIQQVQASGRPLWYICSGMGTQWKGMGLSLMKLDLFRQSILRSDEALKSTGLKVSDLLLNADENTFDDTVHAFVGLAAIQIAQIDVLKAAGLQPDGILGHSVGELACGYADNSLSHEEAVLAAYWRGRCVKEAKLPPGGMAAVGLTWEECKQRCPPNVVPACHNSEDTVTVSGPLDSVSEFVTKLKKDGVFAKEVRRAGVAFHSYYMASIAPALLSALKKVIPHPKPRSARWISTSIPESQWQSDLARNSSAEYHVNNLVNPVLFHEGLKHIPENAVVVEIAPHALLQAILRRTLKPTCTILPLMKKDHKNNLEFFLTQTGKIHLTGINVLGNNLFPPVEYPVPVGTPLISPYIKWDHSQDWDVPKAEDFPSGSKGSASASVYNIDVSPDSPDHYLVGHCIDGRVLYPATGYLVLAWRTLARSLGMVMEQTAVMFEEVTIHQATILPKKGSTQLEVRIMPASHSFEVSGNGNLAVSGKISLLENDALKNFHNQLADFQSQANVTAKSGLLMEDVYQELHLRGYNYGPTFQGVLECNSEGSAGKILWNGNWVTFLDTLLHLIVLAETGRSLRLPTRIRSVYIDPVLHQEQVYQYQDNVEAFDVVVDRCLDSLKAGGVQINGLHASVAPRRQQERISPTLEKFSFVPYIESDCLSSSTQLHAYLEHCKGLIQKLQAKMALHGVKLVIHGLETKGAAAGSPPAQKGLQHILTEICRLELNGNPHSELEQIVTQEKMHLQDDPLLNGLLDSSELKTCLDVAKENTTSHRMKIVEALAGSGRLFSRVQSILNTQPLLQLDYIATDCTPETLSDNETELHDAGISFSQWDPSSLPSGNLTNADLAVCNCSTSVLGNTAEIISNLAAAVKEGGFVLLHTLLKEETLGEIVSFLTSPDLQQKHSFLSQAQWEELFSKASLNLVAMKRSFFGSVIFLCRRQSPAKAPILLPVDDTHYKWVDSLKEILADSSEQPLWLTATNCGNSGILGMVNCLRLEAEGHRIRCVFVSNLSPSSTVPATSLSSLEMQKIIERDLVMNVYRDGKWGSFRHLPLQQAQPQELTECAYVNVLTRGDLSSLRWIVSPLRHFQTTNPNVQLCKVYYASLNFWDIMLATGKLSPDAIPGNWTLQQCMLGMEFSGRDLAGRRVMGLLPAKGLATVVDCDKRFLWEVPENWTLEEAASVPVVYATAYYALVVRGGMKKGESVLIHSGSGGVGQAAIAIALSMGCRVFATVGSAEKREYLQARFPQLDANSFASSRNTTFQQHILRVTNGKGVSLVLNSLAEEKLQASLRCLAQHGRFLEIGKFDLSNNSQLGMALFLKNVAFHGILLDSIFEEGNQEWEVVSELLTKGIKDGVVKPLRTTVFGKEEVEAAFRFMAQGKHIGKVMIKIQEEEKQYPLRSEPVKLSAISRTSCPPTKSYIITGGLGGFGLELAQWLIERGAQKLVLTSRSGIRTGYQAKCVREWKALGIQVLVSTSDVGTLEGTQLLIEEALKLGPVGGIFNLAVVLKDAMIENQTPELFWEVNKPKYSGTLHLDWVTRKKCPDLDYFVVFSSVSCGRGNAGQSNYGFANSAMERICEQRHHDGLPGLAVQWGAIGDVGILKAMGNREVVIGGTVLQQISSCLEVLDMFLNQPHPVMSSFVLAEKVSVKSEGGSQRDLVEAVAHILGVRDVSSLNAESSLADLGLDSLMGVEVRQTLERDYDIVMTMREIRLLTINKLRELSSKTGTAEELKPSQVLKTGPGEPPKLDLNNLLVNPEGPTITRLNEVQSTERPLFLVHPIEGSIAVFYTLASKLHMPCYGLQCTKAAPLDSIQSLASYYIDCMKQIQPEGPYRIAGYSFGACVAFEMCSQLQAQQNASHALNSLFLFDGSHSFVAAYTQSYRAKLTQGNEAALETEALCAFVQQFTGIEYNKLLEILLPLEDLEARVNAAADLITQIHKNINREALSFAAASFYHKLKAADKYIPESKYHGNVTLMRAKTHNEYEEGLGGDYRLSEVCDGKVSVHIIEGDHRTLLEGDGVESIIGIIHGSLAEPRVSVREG
Method: Determination of FAS inhibitory activity
diluted with potassium phosphate buffer (0.1 M, pH 7.0). Sample solution (100 L, 20-2000 μM, 37 °C) and FAS substrates (1.8 mL, 37 °C) were mixed in a cuvette, and then FAS solution (100 L, 37 °C, isolated from chicken liver and kept in ice-bath before use) was added. The absorbance of reaction compound was monitored by a
UV-vis spectrophotometer at 340 nm in 1 min. The inhibitory effect was calculated by the following equation: FAS inhibition (%) = (Acontrol- Asample)/Acontrol×100%, where Acontrolrepresented the FAS activity in the control group (phosphate buffer instead of sample solution), Asamplerepresented the FAS activity in the sample groups. The FAS activity was calculated as (A0 - A1)/1 min, in which A0 was the absorbance of the
reaction compound when the FAS was added, and A1 was the absorbance of the
reaction compound after reaction 1 min. Orlistat was used as the positive control.
FAS substrates: 0.1 M potassium phosphate buffer (pH 7.0), 1 mM ethylene-diaminetetraacetic acid (EDTA), 1 mM dithiothreitol, 3 M acetyl-coenzyme A, 10 M methylmalonyl coenzyme A, 35 M NADPH.

[4] = DPPH radical scavenging assay; conditions: mean ± SD (n = 3), NA = no activity
Method: S1.4. DPPH radical scavenging assay
The DPPH radical scavenging assay was used to evaluate the antioxidant activity of compounds 1-10. In a 96-well microplate, 100 µL of DPPH solution (200 µM in ethanol) was added to 100 µL sample in ethanol at graded concentrations ranging from 7 to 500 µM. The compound was incubated in the dark at room temperature for […]

[5] = test system: α-glucosidase; assay: α-glucosidase inhibitory activity assay (pNPG substrate); type: biochemical, yeast; conditions: for α-Glucosidase Inhibition at 0.1 mM: mean ± SD (n = 3), NA = no activity; for α-glucosidase inhibitory activity (in words): compared with positive control acarbose
Method: S1. Determination of bioactivities […]
S1.2. Determination of α-glucosidase inhibitory activity […]
diluted with phosphate buffer (0.1 M, pH 6.8). […]
and 4-nitrophenyl α-D-glucopyranoside (pNPG) solution (50 µL, 5 mM) were mixed
(1 picture or pasted object on this page, not shown here) […]
and incubated in a 96-well microplate at37 °C for 5 min. α-Glucosidase from yeast (50 µL, 0.2 U/mL) was added and incubated at 37 °C for another 30 min. Finally, 50 µL of Na2CO3 (1M) was added to terminate the reaction. The absorbance of compound was measured using a microplate reader at a wavelength 405 nm. The background absorbance (phosphate buffer instead of substrate pNPG) of all samples […]
calculated by the following equation: α-glucosidase inhibition (%) = (Acontrol-Asample)/Acontrol×100%, where Acontrolrepresented the absorbance of phosphate buffer control without testsamples, Asample represented the absorbance of test samples.
Acarbose was used as the positive control. […]

Structure (SMILES) | α-Amylase Inhibition at 0.1 mM [1] | IC50 [2] | IC50 ([3]; read-out: FAS IC50, mean ± SD (n = 3), NA = no activity, FAS isolated from chicken liver) | IC50 [4] | IC50 [3] | α-Glucosidase Inhibition at 0.1 mM [5] | α-glucosidase inhibitory activity (in words) [5]
CC/C=C/CCO[C@@H]1O[C@H](COC(=O)C=Cc2ccc(O)cc2)[C@@H](O)[C@H](O[C@@H]2O[C@@H](C)[C@H](O)[C@@H](O)[C@H]2O)[C@H]1O [Compound 1] | 27.9 ± 6.4 bc % | 5.65 ± 0.19 µM |  |  |  |  | 
C=C(C)CO[C@@H]1O[C@H](COC(=O)C=Cc2ccc(O)cc2)[C@@H](O)[C@H](O[C@@H]2O[C@@H](C)[C@H](O)[C@@H](O)[C@H]2O)[C@H]1O [Compound 2] | 24.0 ± 1.5 bc % | 103 ± 4 µM | 4.1 ± 0.12 µM |  |  |  | 
C[C@@H]1O[C@@H](O[C@H]2[C@H](O)[C@@H](COC(=O)C=Cc3ccc(O)cc3)OC(O)[C@@H]2O)[C@H](O)[C@H](O)[C@H]1O (some centres unmarked) [Compound 3] | 29.8 ± 1.8 bc % | 12.04 ± 0.08 µM |  | > 250 µM | 6.25 ± 0.2 µM |  | 
CC1OC(OC2C(O)C(O)OC(CO)C2OC(=O)C=Cc2ccc(O)cc2)C(O)C(O)C1O (centres unmarked) [Compound 4] | 25.6 ± 1.0 bc % | 11.2 ± 0.4 µM |  |  | 10.5 ± 0.32 µM |  | 
C[C@@H]1O[C@@H](O[C@@H]2[C@@H](O)[C@@H](O)[C@H](O[C@H]3[C@H](O)[C@@H](COC(=O)C=Cc4ccc(O)cc4)OC(O)[C@@H]3O)O[C@H]2C)[C@H](O)[C@H](O)[C@H]1O (some centres unmarked) [Compound 5] | 26.5 ± 4.0 bc % | 15.5 ± 0.36 µM |  | > 250 µM | 9.75 ± 0.24 µM |  | 
C[C@@H]1O[C@@H](O[C@H]2[C@H](OC(=O)/C=C/c3ccc(O)c(O)c3)[C@@H](CO)OC(O)[C@@H]2O)[C@H](O)[C@H](O)[C@H]1O (stereo partly drawn) [Compound 6, 3-O-(α-L-rhamnopyranosyl)-4-O-(trans-caffeoyl)-D-glucopyranose] | 23.0 ± 0.7 c % | 17 ± 0.45 µM |  | 46.7 ± 1.58 µM |  |  | 
O=c1c(O[C@@H]2O[C@H](CO)[C@@H](O)[C@H](O)[C@H]2O)c(-c2ccc(O)cc2)oc2cc(O[C@@H]3O[C@H](CO)[C@@H](O)[C@H](O)[C@H]3O)cc(O)c12 [Compound 7, kaempferol 3,7-diglucoside] | 31.8 ± 0.5 b % | 9.34 ± 0.04 µM |  |  | 8.1 ± 0.37 µM | 15.6 ± 0.9 c % | moderate and weaker than acarbose
COc1cc([C@H]2c3cc(O[C@@H]4O[C@H](CO)[C@@H](O)[C@H](O)[C@H]4O)c(OC)cc3C[C@@](O)(CO)[C@@H]2CO)ccc1O [Compound 8, (+)-cycloolivil 6-O-β-D-glucopyranoside] | 28.5 ± 2.7 bc % | 29.1 ± 1.11 µM |  | > 250 µM | 8.01 ± 0.26 µM |  | 
COC(=O)C=Cc1ccc(O)cc1 [Compound 9] | 29.5 ± 0.6 bc % | 8.78 ± 0.09 µM |  | > 250 µM | 15.4 ± 0.42 µM | 33.8 ± 2.9 b % | moderate and weaker than acarbose
OCCc1ccc(O)cc1 [Compound 10, 4-hydroxyphenylethanol] | 16.2 ± 5.0 d % | 3.41 ± 0.08 µM |  |  |  |  | 
O=C1O[C@H]([C@@H](O)CO)C(O)=C1O [L-(+)-ascorbic acid, reference compound] |  | 10.1 ± 0.19 µM |  | 13.66 ± 0.13 µM |  |  | 
